Experimental findings from ChEMBL document CHEMBL1201862, “PubChem BioAssay data set” (2004) are described below.

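96-well plates; 48 h exposure; 5 concentrations. Endpoints by linear interpolation between flanking doses. Not reached: highest tested concentration assigned. Here, GI50 denotes the concentration required for 50% inhibition of growth.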 Active and inactive are the calls of the source. Rule as the data show it: active = GI50 up to about 1.1 µM and inactive = higher.

Test systems include NCI-H226; SF-539; NCI-H522; HCT-15; SF-268; K562; A498; NCI-H23; OVCAR-3; DU-145; SR; SNB-75; SK-OV-3; SF-295; COLO 205; IGROV-1; KM12; CCRF-CEM; MDA-N; MOLT-4.
Holding throughout (experiment): inhibition of tumour cell growth, NCI panel, 48 h

Take `CC(C)(C)[Si](C)(C)OCC1OC(n2ccc(=O)[nH]c2=O)C(O[Si](C)(C)C(C)(C)C)[C@]12O[C@@H]2CO` (stereo partly drawn): the GI50 in the assay with NCI-H226 was 13.8 µM (inactive); in the assay on SF-539 it was 21.5 µM (inactive); with NCI-H522 it was 14.1 µM (inactive); with HCT-15 it was 11.9 µM; in the assay with SF-268, 19.4 µM (inactive); in the assay with K562, 23.3 µM (inactive). Also, the GI50 in the assay on A498 is 18.6 µM (inactive); in the assay with NCI-H23, 14.1 µM (inactive); with OVCAR-3 it was 14.9 µM (inactive); with DU-145, 19.4 µM (inactive); in the assay with SR, 3.61 µM (inactive); in the assay with SNB-75, 18.4 µM (inactive). Besides, the GI50 in the assay with SK-OV-3 was 15.6 µM (inactive); with SF-295 it was 10.3 µM (inactive); in the assay on COLO 205, 17.5 µM (inactive); in the assay with IGROV-1 it was 16.3 µM (inactive); in the assay on KM12, 14.8 µM (inactive); with CCRF-CEM, > 10 µM (inactive). Also, the GI50 with MDA-N was 20.9 µM (inactive); with MOLT-4 it was 8.3 µM (inactive).
Consider `CS(=O)(=O)OCC1OC(n2ccc(NC(=O)c3ccccc3)nc2=O)CC1OS(C)(=O)=O` (stereo not drawn), for which the GI50 in the assay with NCI-H226 is > 100 µM (inactive); in the assay with SF-539 it was > 100 µM (inactive); with NCI-H522 it was > 100 µM (inactive); in the assay with HCT-15 it was greater than 100 µM; in the assay with SF-268, > 100 µM (inactive); with K562, > 100 µM (inactive). Also, the GI50 with A498, in the assay with NCI-H23, with OVCAR-3, in the assay with DU-145, with SR and in the assay on SNB-75 was > 100 µM (inactive) throughout. The GI50 in the assay with SK-OV-3, with SF-295, in the assay with COLO 205, in the assay with IGROV-1, in the assay on KM12 and with CCRF-CEM was > 100 µM (inactive) throughout. Besides, the GI50 in the assay with MDA-N and in the assay with MOLT-4 was > 100 µM (inactive) throughout.
Turning to `Cc1cc(C)c(P2C(=C(O[Si](C(C)C)(C(C)C)C(C)C)C(C)(C)C)C2(c2ccccc2)c2ccccc2)c(C)c1` (stereo not drawn), the GI50 was > 100 µM (inactive) with NCI-H226; > 100 µM (inactive) in the assay with SF-539; 62.1 µM (inactive) with NCI-H522; greater than 100 µM with HCT-15; > 100 µM (inactive) with SF-268; 67 µM (inactive) with K562. The GI50 with A498 was > 100 µM (inactive); in the assay on NCI-H23, > 100 µM (inactive); in the assay with OVCAR-3, > 100 µM (inactive); in the assay with DU-145, > 100 µM (inactive); in the assay on SR, 86.3 µM (inactive); with SNB-75 it was 88.1 µM (inactive). Besides, the GI50 with SK-OV-3 is > 100 µM (inactive); in the assay on SF-295 it was > 100 µM (inactive); with COLO 205 it was > 100 µM (inactive); in the assay with IGROV-1, > 100 µM (inactive); in the assay with KM12, 94 µM (inactive); in the assay on CCRF-CEM, > 100 µM (inactive). Moreover, the GI50 in the assay on MDA-N and with MOLT-4 was > 100 µM (inactive) each time.
For the molecule `CCc1nc(N)nc(N)c1-c1ccc(Cc2ccccc2)c([N+](=O)[O-])c1`, the GI50 is 27.6 µM (inactive) in the assay on NCI-H226; 0.0475 µM (active) with SF-539; 0.16 µM (active) with NCI-H522; less than 0.01 µM in the assay on HCT-15; 0.0192 µM (active) with SF-268; < 0.01 µM (active) in the assay on K562. In addition, the GI50 in the assay on A498 was 3.05 µM (inactive); with NCI-H23 it was 0.0171 µM (active); with OVCAR-3 it was 0.873 µM (active); in the assay with DU-145 it was 0.0585 µM (active); in the assay with SR, < 0.01 µM (active); in the assay with SNB-75, 23.3 µM (inactive). The GI50 was 7.87 µM (inactive) with SK-OV-3; 0.0116 µM (active) with SF-295; 0.561 µM (active) in the assay with COLO 205; 0.0702 µM (active) in the assay with IGROV-1; 0.0762 µM (active) with KM12; < 0.01 µM (active) in the assay on CCRF-CEM. In addition, the GI50 with MDA-N is < 0.046 µM (active); in the assay with MOLT-4, < 0.0127 µM (active).
For `CN(C)c1ccc(C(Cc2ccccc2)C2NC(=S)NC2=O)cc1` (stereo not drawn), the GI50 with NCI-H226 was > 100 µM (inactive); with SF-539 it was 47.8 µM (inactive); with NCI-H522 it was > 100 µM (inactive); in the assay with HCT-15 it was greater than 100 µM; with SF-268 it was > 100 µM (inactive); in the assay with K562, 31.1 µM (inactive). Also, the GI50 in the assay with A498 was > 100 µM (inactive); with NCI-H23, > 100 µM (inactive); with OVCAR-3, > 100 µM (inactive); with DU-145, > 100 µM (inactive); in the assay with SR it was 2.17 µM (inactive); in the assay with SNB-75, > 100 µM (inactive). Moreover, the GI50 with SK-OV-3 is 76.9 µM (inactive); with SF-295, > 95.7 µM (inactive); in the assay with COLO 205, > 100 µM (inactive); with IGROV-1, > 100 µM (inactive); with KM12, > 100 µM (inactive); in the assay with CCRF-CEM, > 100 µM (inactive). Besides, the figures for the GI50 in the assay on MDA-N and with MOLT-4 were > 100 µM (inactive) and 61.1 µM (inactive), respectively.
On to `c1ccc(Nc2nn3c(CCCCCCCCc4nnc5sc(Nc6ccccc6)nn45)nnc3s2)cc1`, for which the GI50 was 40.9 µM (inactive) in the assay on NCI-H226; 56.5 µM (inactive) in the assay with SF-539; 20.2 µM (inactive) in the assay on NCI-H522; 36.5 µM with HCT-15; 43 µM (inactive) in the assay on SF-268; 15.3 µM (inactive) in the assay with K562. Moreover, the GI50 in the assay on A498 was 36.2 µM (inactive); in the assay with NCI-H23 it was 21.3 µM (inactive); in the assay with OVCAR-3 it was 23.6 µM (inactive); in the assay on DU-145, 47.8 µM (inactive); in the assay with SR, 13.3 µM (inactive); with SNB-75 it was 22.4 µM (inactive). Also, the GI50 is 32.1 µM (inactive) with SK-OV-3; 24.4 µM (inactive) in the assay with SF-295; 19.5 µM (inactive) in the assay on COLO 205; 32.2 µM (inactive) in the assay with KM12; 20.4 µM (inactive) with CCRF-CEM; 18.4 µM (inactive) in the assay with MDA-N. Further, the GI50 in the assay with MOLT-4 is 14.7 µM (inactive).
`O=C1OC(C2=CC(=O)c3ccccc3C2=O)C(Cl)=C1Cl` (stereo not drawn): the GI50 with NCI-H226 was 27.2 µM (inactive); in the assay with SF-539 it was 27.4 µM (inactive); in the assay with NCI-H522, 15.9 µM (inactive); with HCT-15, 20 µM; with SF-268, 27.2 µM (inactive); in the assay with K562 it was 32.7 µM (inactive). Also, the GI50 in the assay with A498 was 42.8 µM (inactive); with NCI-H23, 24.4 µM (inactive); in the assay on OVCAR-3, 33.1 µM (inactive); in the assay with DU-145 it was 39.7 µM (inactive); with SR it was 24 µM (inactive); in the assay on SNB-75, 37.2 µM (inactive). Besides, the GI50 with SK-OV-3 was 79.6 µM (inactive); in the assay on SF-295 it was 86.5 µM (inactive); in the assay with COLO 205, 35 µM (inactive); with KM12 it was 77.4 µM (inactive); in the assay on CCRF-CEM it was 20 µM (inactive); with MDA-N, 39.5 µM (inactive). Besides, the GI50 with MOLT-4 is 34.4 µM (inactive).
